The Kinase Knowledgebase extract (Sharma et al. 2016)

Assays:
[1] = target: EGFR (human), P00533 [Antiproliferation of H195 Cells Having Overexpressed EGFR T790 Mutant Kinase]
EGFR (human) [2] = target: EGFR (human) (UniProt P00533); conditions: a431
EGFR (human) [3] = target: EGFR (human) (UniProt P00533)
[4] = target: EGFR (human), P00533 [Assessment of EGFR T790 Mutant Kinase Activity]
Chain of EGFR (human), P00533 [Assessment of EGFR T790 Mutant Kinase Activity] (P00533 whole entry, looked up, change not shown): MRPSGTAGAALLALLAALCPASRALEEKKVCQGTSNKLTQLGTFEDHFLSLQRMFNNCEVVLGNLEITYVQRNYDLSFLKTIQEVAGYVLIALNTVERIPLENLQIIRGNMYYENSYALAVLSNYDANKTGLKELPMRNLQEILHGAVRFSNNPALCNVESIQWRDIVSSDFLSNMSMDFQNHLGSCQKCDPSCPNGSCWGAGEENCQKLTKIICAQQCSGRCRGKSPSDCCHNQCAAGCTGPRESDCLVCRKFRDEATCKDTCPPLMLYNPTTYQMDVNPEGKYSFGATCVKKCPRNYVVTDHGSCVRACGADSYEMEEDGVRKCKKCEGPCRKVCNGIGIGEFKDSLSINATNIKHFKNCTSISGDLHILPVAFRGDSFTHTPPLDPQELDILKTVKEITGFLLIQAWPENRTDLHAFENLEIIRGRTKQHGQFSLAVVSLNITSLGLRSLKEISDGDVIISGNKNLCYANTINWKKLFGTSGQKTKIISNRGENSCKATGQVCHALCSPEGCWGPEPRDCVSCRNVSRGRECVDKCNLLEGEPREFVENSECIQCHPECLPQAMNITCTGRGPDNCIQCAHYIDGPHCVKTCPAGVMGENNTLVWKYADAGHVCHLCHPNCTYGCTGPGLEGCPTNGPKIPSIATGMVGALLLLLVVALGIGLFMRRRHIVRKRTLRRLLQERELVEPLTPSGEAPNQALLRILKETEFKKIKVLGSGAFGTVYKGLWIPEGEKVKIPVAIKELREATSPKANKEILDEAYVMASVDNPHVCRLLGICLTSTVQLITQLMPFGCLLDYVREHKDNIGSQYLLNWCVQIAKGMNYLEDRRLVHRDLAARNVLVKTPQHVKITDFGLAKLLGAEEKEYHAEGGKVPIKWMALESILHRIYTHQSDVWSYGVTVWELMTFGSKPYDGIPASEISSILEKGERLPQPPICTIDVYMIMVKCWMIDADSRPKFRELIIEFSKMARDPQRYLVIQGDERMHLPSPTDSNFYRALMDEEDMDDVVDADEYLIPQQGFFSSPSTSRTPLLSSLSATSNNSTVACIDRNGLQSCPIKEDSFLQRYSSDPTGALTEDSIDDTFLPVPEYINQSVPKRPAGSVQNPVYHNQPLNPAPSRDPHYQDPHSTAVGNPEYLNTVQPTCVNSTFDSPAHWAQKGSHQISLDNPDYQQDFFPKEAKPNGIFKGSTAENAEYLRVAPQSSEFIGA

Chain of EGFR (human) (P00533 whole entry, looked up): as the sequence (P00533 whole entry, looked up, change not shown) above
Chain of EGFR (human), P00533 [Antiproliferation of H195 Cells Having Overexpressed EGFR T790 Mutant Kinase] (P00533 whole entry, looked up, change not shown): as above

Row | SMILES | IC50 [1] [nM] | IC50 (EGFR (human) [2]) [nM] | IC50 (EGFR (human) [3]) [nM] | IC50 [4] [nM]
1 | C=CC(=O)N1CC[C@H](Oc2cc3c(Nc4ccc(Br)c(Cl)c4F)ncnc3cc2OC)C1 | 55 | 5 | – | –
2 | C=CC(=O)N1CCC(Oc2cc3c(Nc4cccc(Br)c4)ncnc3cc2OC)CC1 | 96 | 1 | – | –
3 | C=CC(=O)N1CC[C@H](Oc2cc3c(Nc4ccc(F)c(Cl)c4F)ncnc3cc2OC)C1 | 80 | 4 | 3 | –
4 | C=CC(=O)N1CCC(Oc2cc3c(Nc4cccc(C)c4)ncnc3cc2OC)CC1 | 236 | 1 | – | –
5 | C=C(CN1CCOCC1)C(=O)N1CC(Oc2cc3c(Nc4ccc(F)c(Cl)c4F)ncnc3cc2OC)C1 | 8 | 1.5 | – | –
6 | C=CC(=O)N1CC[C@@H](Oc2cc3c(Nc4ccc(F)c(Cl)c4F)ncnc3cc2OC)C[C@@H]1C(=O)OC | 5.4 | 0.7 | – | –
7 | C=CC(=O)N1CCC(Oc2cc3c(Nc4ccc(Br)c(C)c4)ncnc3cc2OC)CC1 | 48 | 6 | – | –
8 | C=CC(=O)N1CC[C@H](Oc2cc3c(Nc4ccc(F)c(Cl)c4F)ncnc3cc2OC)C[C@H]1C(=O)NCCOC | 11 | 3.4 | – | –
9 | C=CC(=O)N1CC[C@H](Oc2cc3c(Nc4ccc(F)c(Cl)c4F)ncnc3cc2OC)C[C@H]1C(=O)NCCO | 39 | 5.4 | – | –
10 | C=CC(=O)N1CC(Oc2cc3c(Nc4cccc(Cl)c4)ncnc3cc2OC)C1 | 17.7 | 1.6 | – | –
11 | C=CC(=O)N1CCC(Oc2cc3c(Nc4ccc(F)c(Cl)c4F)ncnc3cc2OCCOC)CC1 | 47 | 4 | – | –
12 | C=CC(=O)N1CC(Oc2cc3c(Nc4ccc(F)c(Cl)c4F)ncnc3cc2OC)C1 | 1.5 | 0.3 | – | –
13 | COc1cc2ncnc(Nc3ccc(F)c(Cl)c3F)c2cc1OC1CN(C(=O)/C=C\Cl)C1 | 19 | 2.4 | – | –
14 | C=CC(=O)N1CC[C@H](Oc2cc3c(Nc4ccc(F)c(Cl)c4F)ncnc3cc2OC)C[C@H]1C(=O)NCCSC | 5 | 2.4 | – | –
15 | C=CC(=O)N1CCC(Oc2cc3c(Nc4ccc(F)c(Cl)c4F)ncnc3cc2OC)CC1 | – | – | – | 24
16 | C=C(NC(C)=O)C(=O)N1CC(Oc2cc3c(Nc4ccc(F)c(Cl)c4F)ncnc3cc2OC)C1 | 50 | 3.1 | – | –
17 | C=CC(=O)N1CC[C@H](Oc2cc3c(Nc4ccc(F)c(Cl)c4F)ncnc3cc2OC)C[C@H]1C(=O)NCCN(C)C | 30 | 5.7 | – | –
18 | C=C(CN(C)C)C(=O)N1CC(Oc2cc3c(Nc4ccc(F)c(Cl)c4F)ncnc3cc2OC)C1 | 11 | 41 | – | –
19 | C=CC(=O)N1CCC(Oc2cc3c(Nc4cccc(Cl)c4F)ncnc3cc2OC)CC1 | 22 | 2 | – | –

Row | SMILES | IC50 [1] [nM] | IC50 (EGFR (human) [2]) [nM] | IC50 (EGFR (human) [3]) [nM] | IC50 [4] [nM]
20 | C=CC(=O)N1CC[C@@H](Oc2cc3c(Nc4ccc(F)c(Cl)c4F)ncnc3cc2OC)C[C@@H]1C(=O)NC | 2.6 | 2.9 | – | –
21 | C=CC(=O)N1CC[C@H](Oc2cc3c(N[C@H](C)c4ccccc4)ncnc3cc2OC)C1 | 167 | 8 | – | –
22 | C=CC(=O)N1CCC(Oc2cc3c(Nc4cccc(C=C)c4)ncnc3cc2OC)CC1 | 27 | 1.9 | – | –
23 | C=CC(=O)N1CC[C@@H](Oc2cc3c(Nc4ccc(F)c(Cl)c4F)ncnc3cc2OC)C[C@@H]1C(N)=O | 5.2 | 0.8 | – | –
24 | C=CC(=O)N1CC[C@H](Oc2cc3c(Nc4ccc(F)c(Cl)c4F)ncnc3cc2OC)C[C@H]1C(N)=O | 5.2 | 3 | – | –
25 | C=CC(=O)N1CC(Oc2cc3c(N[C@H](C)c4ccccc4)ncnc3cc2OC)C1 | 156 | 7 | – | –
26 | C=CC(=O)N1CC[C@@H](Oc2cc3c(Nc4ccc(Cl)c(Cl)c4F)ncnc3cc2OC)C[C@@H]1C(N)=O | 1.1 | 0.8 | – | –
27 | C=CC(=O)N1CC[C@H](Oc2ccc3ncnc(Nc4ccc(F)c(Cl)c4F)c3c2)C1 | 413 | 5 | – | –
28 | C=CC(=O)N1CC(Oc2cc3c(Nc4cccc(Cl)c4F)ncnc3cc2OC)C1 | 9 | 1.6 | – | –
29 | C=CC(=O)N1CC[C@H](Oc2cc3c(Nc4ccc(F)c(Cl)c4F)ncnc3cc2OC)C[C@H]1C(=O)NCCS(C)(=O)=O | 50.4 | 2.2 | – | –
30 | COc1cc2ncnc(Nc3cccc(Cl)c3F)c2cc1OC1CCN(C(=O)CO)CC1 | – | 39 | 204 | –
31 | CC#CC(=O)N1CCC(Oc2cc3c(Nc4ccc(F)c(Cl)c4F)ncnc3cc2OC)CC1 | – | 190 | – | –
32 | C=CC(=O)N1CCC(Oc2cc3c(Nc4ccc(F)c(Cl)c4)ncnc3cc2OC)CC1 | 16 | 17 | – | –
33 | COc1cc2ncnc(Nc3ccc(F)c(Cl)c3F)c2cc1O[C@H]1CCN(C(=O)/C=C/CN2CCCC2)C1 | – | 8 | – | –
34 | C=CC(=O)N1CCC(Oc2cc3c(Nc4ccc(F)c(Cl)c4F)ncnc3cc2OCCCN2CCOCC2)CC1 | – | 4 | – | –
35 | COc1cc2ncnc(Nc3ccc(F)c(Cl)c3F)c2cc1O[C@H]1CCN(C(=O)C#CCCN2CCN(C)CC2)C1 | – | 53 | – | –
36 | C=CC(=O)N1CC[C@H](Oc2cc3c(Nc4ccc(F)c(Cl)c4F)ncnc3cc2OC)C[C@H]1C(=O)NCCC | – | 12 | – | –
37 | C=CC(=O)N1CCC(Oc2cc3c(N[C@H](C)c4ccccc4)ncnc3cc2OC)CC1 | – | 514 | – | –
